The text below walks through data of patent US8039614B2, “4' -C-substituted-2-haloadenosine derivative” (Yamasa Corporation, priority 2004, dated 2011).

pEC50: −log10 of the molar value.

The target of data set [1] is T1, Calf-intestine-derived adenosine deaminase (Bos taurus, UniProt P56658).
T1 construct: Calf-intestine-derived adenosine deaminase; from tissue; host or cells: calf intestine
T1 sequence (P56658 1-363): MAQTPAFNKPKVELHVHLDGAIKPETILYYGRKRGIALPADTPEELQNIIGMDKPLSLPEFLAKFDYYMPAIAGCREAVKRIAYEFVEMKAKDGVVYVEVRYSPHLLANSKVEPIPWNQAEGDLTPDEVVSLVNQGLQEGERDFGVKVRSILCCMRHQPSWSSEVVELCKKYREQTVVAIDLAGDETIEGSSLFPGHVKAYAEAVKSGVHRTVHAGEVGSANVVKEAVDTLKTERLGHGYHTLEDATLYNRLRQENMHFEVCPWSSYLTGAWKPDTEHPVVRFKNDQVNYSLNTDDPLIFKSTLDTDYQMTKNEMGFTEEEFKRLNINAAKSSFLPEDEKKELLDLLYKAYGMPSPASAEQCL
As to the kind of experiment: Stability against adenosine deaminase (HPLC). Format: in vitro ADME. Particulars: 0.01 unit enzyme, 0.5 mM compound, Tris-HCl pH 7.5, 25° C., FIG. 1. Here is the method: <Test Methods> Stability of Compound 4 Against Adenosine Deaminase Calf-intestine-derived adenosine deaminase (0.01 unit) was added to 0.5 ml of 0.5-mM compound 4 (50 mM Tris-HCl buffered solution (pH 7.5)), and the mixture was incubated at 25° C. A 5-μl aliquot of the reaction mixture was removed every 15 minutes, followed by analysis by means of HPLC (high performance liquid chromatography). The peak area of a test drug at reaction time 0 was taken as 100%, and the curve was monitored over time. The HPLC analysis was performed under the following conditions. Column: YMC-Pack ODS-A (250×6.0 mm) Eluent: 15% MeCN-50 mM TEAA Flow rate: 1 mL/min. Temperature: 30° C. Detection: 260 nm

Data set [2] is described as follows: Stability under acidic conditions (HPLC). Format: physicochemical. Particulars: NaCl/hydrochloric acid test solution, 37° C. Here is the method:
<Test Methods> Stability of Compound 4 Under Acidic Conditions
Compound 4 (2.9 mg) or 2′,3′-dideoxyadenosine (ddAdo: 2.4 mg) was dissolved in 10 ml of a 37° C. test solution (which had been prepared by adding 2.0 g of sodium chloride and 7.0 ml of hydrochloric acid into water to make a solution of 1,000 ml), followed by incubation at the same temperature (37° C.).
A 100-μl aliquot of the reaction mixture was removed therefrom and neutralized with aqueous 0.1-N sodium hydroxide solution, followed by analysis of 5 μl by means of HPLC. The HPLC analysis conditions are the same as those employed in Test Example 2.

For data set [3], the system named is HIV-1 MDR drug-resistant strain. As to the kind of experiment: MAGI assay using HeLa CD4/LTR-beta-Gal cells, drug-resistant strain MDR. Format: cell-based. Particulars: Human immunodeficiency virus 1, HeLa, 48 h, read-out: Anti-HIV-1MDR activity (EC50, μM). How it is done: (§1) • 1. A test agent (100 μl) is diluted on a 96-well microplate. MT-4 cells infected with HIV-1 (IIIb strain; 100 TCID50) and non-infected MT-4 cells are added to the microplate such that the number of cells in each well becomes 10,000. The cells are cultured at 37° C. for five days. • 2. MTT (20 μl, 7.5 mg/ml) is added to each well, and the cells are further cultured for 2-3 hours. • 3. The cultured medium (120 μl) is sampled, and MTT terminating solution (isopropanol containing 4% Triton X-100 and 0.04N HCl) is added to the sample. The mixture is stirred to dissolve formed formazan. The absorbance at 540 nm of the solution is measured. Since the absorbance is proportional to the number of viable cells, the test agent concentration at which a half value of the absorbance is measured in a test using infected MT-4 cells represents EC50, whereas the test agent concentration at which a half value of the absorbance is measured in a test using non-infected MT-4 cells represents CC50. 2) MAGI Assay Using HeLa CD4/LTR-beta-Gal Cells • 1. HeLa CD4/LTR-beta-Gal cells are added to 96 wells such that the number of cells in each well is 10,000. After 12-24 hours, the culture medium is removed, and a diluted test agent (100 μl) is added. • 2. A variety of HIV strains (wild strain: WT, drug-resistant strain: MDR and M184V; each being equivalent to 50 TCID50) are added, and the cells are further cultured for 48 hours. • 3. The cells are fixed for five minutes using PBS supplemented with 1% formaldehyde and 0.2% glutaraldehyde. • 4. After the fixed cells are washed with PBS three times, the cells are stained with 0.4 mg/ml X-Gal for one hour, and the number of blue-stained cells of each well is counted under a transmission stereoscopic microscope. The test agent concentration at which blue-stained cells decrease to 50% in number represents EC50. <Results> Anti-human-immunodeficiency Virus (HIV) Activity and Cytotoxicity 1) MTT Method Using MT-4 Cells

A further data set relates to HIV-1 (IIIb strain). Put plainly: MTT method using MT-4 cells infected with HIV-1 (anti-HIV activity). Format: cell-based. Conditions: for pEC50: MT-4 cells infected with HIV-1 IIIb, MTT, five days; for Selectivity Index (CC50/EC50): MT-4 cells. How it is done:
(§2) 1) MTT Method Using MT-4 Cells
as §1
(Tetrazolium dyes change colour on reduction, which living cells bring about.)

The subject of a further data set is HIV-1 wild strain (WT). As to the kind of experiment: MAGI assay using HeLa CD4/LTR-beta-Gal cells, wild strain. Format: cell-based. Particulars: Human immunodeficiency virus 1, 48 hours, read-out: Anti-HIV-1wild activity (EC50). Here is the method: as §1
The nature of data set [4]: MTT method using non-infected MT-4 cells (cytotoxicity). Format: cell-based. Particulars: human. Here is the method:
as §2, §1

The test system of another data set is ICR mice. Put plainly: In vivo acute toxicity test in ICR mice. Particulars: for Survisors/Total: ICR mice, seven days. Here is the method: <Test methods> In vivo Acute Toxicity Test of Compound 4
Groups of ICR mice (6 weeks of age, male), each group consisting of 8 mice, were given a test drug (Compound 4; dissolved or suspended in saline) via oral route or intravenous injection in amounts up to 100 mg/kg. The occurrence of death and body weight of each mouse were monitored for seven days.

For data set [5], the system named is HIV-1 M184V drug-resistant strain. Put plainly: MAGI assay using HeLa CD4/LTR-beta-Gal cells, drug-resistant strain M184V. Format: cell-based. Particulars: Human immunodeficiency virus 1, HeLa, 48 h, read-out: Anti-HIV-1M184V activity (EC50, μM). Here is the method: as §1
Another data set has as its system non-infected MT-4 cells. Put plainly: MTT method using non-infected MT-4 cells (cytotoxicity). Format: cell-based. Particulars: non-infected MT-4 cells, MTT, five days. How it is done: as §2, §1
[6] abbreviates: Human immunodeficiency virus 1, MT4, 120 h.

One may read the EC50 as the concentration that produces a half-maximal response. By pEC50 is commonly meant the negative decadic logarithm of the EC50, by convention in mol/L. One may read the CC50 as the concentration that lowers cell viability or growth by half. `C#C[C@]1(CO)O[C@@H](n2cnc3c(N)nc(F)nc32)C[C@@H]1O` [Compound 4, 2′-deoxy-4′-C-ethynyl-2-fluoroadenosine]: the “Deamination by adenosine deaminase” value in data set [1] is listed as “not at all deaminated”. Besides, the “Degradation under acidic conditions” value in data set [2] (FIG. 2) is listed as “degraded very slowly”. For the same molecule, the EC50 in data set [3] amounted to 0.000145 µM; in data set [5], 0.00311 µM. In addition, the pEC50 with HIV-1 (IIIb strain) (setting [6]) is 10.17; with HIV-1 wild strain (WT), 9.70. In addition, the “Selectivity Index (CC50/EC50)” value in the data set with HIV-1 (IIIb strain) is recorded as 110,000. In [4], the CC50 at 5 days came to 7500 nM. Further, the Survisors/Total in the data set on ICR mice (Intravenous, 1 mg/kg single dose) is reported as 8/8; in the data set with ICR mice (Intravenous, 3 mg/kg single dose), 8/8; in the data set with ICR mice (Intravenous, 10 mg/kg single dose) it was 8/8; in the data set on ICR mice (Intravenous, 30 mg/kg single dose) it was 8/8; with ICR mice (Intravenous, 100 mg/kg single dose), 8/8; in the data set with ICR mice (Oral, 1 mg/kg single dose), 8/8. The Survisors/Total in the data set with ICR mice (Oral, 3 mg/kg single dose) is given as 8/8; in the data set on ICR mice (Oral, 10 mg/kg single dose), 8/8; with ICR mice (Oral, 30 mg/kg single dose), 8/8; in the data set with ICR mice (Oral, 100 mg/kg single dose), 8/8. Besides, the “Acute toxicity in mice (conclusion)” value in the data set on ICR mice (mouse, in vivo) was “does not exhibit acute toxicity”. Besides, the “Survival of mice” value in the data set on ICR mice (mouse, in vivo) was “survived”. The “Weight loss and pathological symptoms such as diarrhea” value in the data set on ICR mice (mouse, in vivo) is reported as “not observed”.
For the molecule `C#C[C@]1(CO)O[C@@H](n2cnc3c(N)nc(Cl)nc32)C[C@@H]1O` [Compound 9, 2-chloro-2′-deoxy-4′-C-ethynyladenosine], the EC50 in [3] stood at 0.0084 µM; in data set [5], 0.01 µM. In the data set with HIV-1 wild strain (WT), the pEC50 is 8.72.
Regarding `C#C[C@]1(CO)O[C@@H](n2cnc3c(N)nc(N)nc32)C[C@@H]1O` [EdDAP, 9-(4-C-ethynyl-2-deoxy-ribopentofuranosyl)-2,6-diaminopurine], in the data set on HIV-1 (IIIb strain), the pEC50 was 9.47. Also, in the data set with non-infected MT-4 cells, the midpoint of cytotoxicity, the CC50, lay at 900 nM.
On to `C#C[C@@]1(CO)C=C[C@H](n2cnc3c(N)nc(F)nc32)O1` [Compound 13, 2′,3′-didehydro-2′,3′-dideoxy-4′-C-ethynyl-2-fluoroadenosine], for which the figures for the EC50 in data set [3] and in data set [5] were 0.15 µM and 1.8 µM, respectively. The pEC50 in the data set with HIV-1 wild strain (WT) is 6.10.
Consider `C#C[C@]1(CO)O[C@@H](n2cnc3c(N)ncnc32)C[C@@H]1O` [EdAdo, 2′-deoxy-4′-C-ethynyladenosine, reference compound], for which the “Deamination by adenosine deaminase” value in data set [1] was “deaminated”. Also, the values for the EC50 in [3] and in data set [5] were 0.0062 µM and 0.047 µM, respectively. Further, the pEC50 in the data set with HIV-1 (IIIb strain) (setting [6]) is 8.01; in the data set on HIV-1 wild strain (WT), 8.10. Further, the “Selectivity Index (CC50/EC50)” value in the data set on HIV-1 (IIIb strain) was 1,630. The molecule further had a CC50 at 5 days in [4] of 16000 nM.
Take `C#C[C@]1(CO[PH](=O)O)O[C@@H](n2cnc3c(N)nc(F)nc32)C[C@H]1O` [Compound 10, 2′-deoxy-4′-C-ethynyl-2-fluoroadenosine 5′-H-phosphonate]: the EC50 in [3] turned out to be 0.003 µM; in data set [5], 0.062 µM. The pEC50 in the data set on HIV-1 wild strain (WT) was 8.47.
As for `Nc1ncnc2c1ncn2[C@H]1CC[C@@H](CO)O1` [ddAdo, 2′,3′-dideoxyadenosine, reference compound], the “Fraction degraded under acidic conditions” value in data set [2] (in about five minutes, FIG. 3) is given as “About 98%”.
As for `N#C[C@]1(CO)O[C@@H](n2cnc3c(N)nc(F)nc32)C[C@@H]1O` [Compound 8, 4′-C-cyano-2′-deoxy-2-fluoroadenosine], the EC50 in data set [3] amounted to 0.95 µM; in data set [5], 4.8 µM. Also, the pEC50 in the data set with HIV-1 wild strain (WT) was 6.92.
